Tests used:
[1] = system: C57BL/6 mice; experiment: Change in muscle type (slow-twitch myosin staining of plantaris muscle); assay type: in vivo, mouse; details: 200 mg/kg oral once a day, 8 weeks
Description: 5-week-old male C57BL/6 mice were grouped with 10 mice per group to evaluate change in muscle type after administration of test substances. The experimental mice were orally administered with Gynostemma pentaphyllum leaf extract, Artemisia princeps extract, astragali radix extract or EPA alone, a mixture of Artemisia princeps extract, Gynostemma pentaphyllum leaf extract and astragali radix extract or a mixture of EPA, Gynostemma pentaphyllum leaf extract and astragali radix extract (200 mg/kg) as test substances for 8 weeks, once a day. The mice were fasted for 12 hours before autopsy. Plantaris muscle was taken from the mice of each test group and frozen in liquid nitrogen. The frozen tissue was sliced to 10-μm thickness using a cryotome, fixed in acetone for 10 minutes, and washed 3 times with PBS. After blocking for 2 hours with PBS containing 10% FBS, the tissue sections were treated with anti-slow-twitch myosin antibody (Abcam, Cambridge, UK) as primary antibody and with fluorescein isothiocyanate (FITC)-conjugated anti-mouse IgG antibody (Molecular Probes) as secondary antibody. After mounting with antifade solution, the sections were examined by confocal microscopy.

[2] = system: C57BL/6 mice; experiment: Blood analysis (blood sugar, serum triglyceride and cholesterol); assay type: in vivo, mouse; details: 200 mg/kg oral once a day, 8 weeks
Description: 5-week-old male C57BL/6 mice were grouped with 10 mice per group. They were orally administered with Gynostemma pentaphyllum leaf extract, Artemisia princeps extract, astragali radix extract or EPA alone, a mixture of Artemisia princeps extract, Gynostemma pentaphyllum leaf extract and astragali radix extract or a mixture of EPA, Gynostemma pentaphyllum leaf extract and astragali radix extract (200 mg/kg) as test substances for 8 weeks, once a day. Then, blood analysis was performed to evaluate blood sugar level and serum triglyceride and cholesterol levels. The blood sugar level was measured using the Accu-Check Active kit (Roche Diagnostics, Seoul, Korea). The blood sample was centrifuged at 3000 rpm for 10 minutes to separate serum. Triglyceride and cholesterol levels in the separated serum were analyzed using the […] analyzer (Vital Scientific, […], The Netherlands).

CC/C=C\C/C=C\C/C=C\C/C=C\C/C=C\CCCC(=O)O [EPA, eicosapentaenoic acid]
Fast-twitch muscle (%) [1]: 70.6 ± 3.6%
Slow-twitch muscle (%) [1]: 29.4 ± 4.2%
Blood sugar [2]: 181.2 ± 10.9 mg/dL
Cholesterol ([2]; serum): 164.9 ± 12.1 mg/dL
Triglyceride ([2]; serum): 101.23 ± 11.3 mg/dL
